Test results taken from the RepoRT retention time repository.
Structures can show the parent of a compound that is named as a salt.

Test: RP, Waters ACQUITY Premier BEH C18, 100 × 2.1 mm, 1.7 µm, 40 °C, 0.3 to 0.4 mL/min, estimated dead time 0.73 min; A: water + 0.1% formic acid; B: acetonitrile + 0.1% formic acid; gradient (min/%B) 0/0.5 0.1/0.5 10/80 10.1/99.5 12/0.5 12.1/0.5 14.5/0.5
Conditions: stereoisomer not certain

O=C(O)CCCCCCCCCO [10-HYDROXYDECANOATE] and CCCCCCCCCC(O)CC(=O)O (stereo not drawn) [3-HYDROXYDODECANOIC ACID] are within 1.5-fold of each other in LC retention time: 6.11 min for the first, 7.65 min for the second.

Cc1ccccc1C(=O)O [2-METHYLBENZOIC ACID] and Nc1c(O)cccc1C(=O)O [3-HYDROXYANTHRANILATE] are within 1.5-fold of each other in LC retention time: 5.38 min for the first, 3.85 min for the second.

NCCc1c[nH]c2ccc(O)cc12 [SEROTONIN] and CNCCc1c[nH]c2ccccc12 [N-METHYLTRYPTAMINE] are within 1.5-fold of each other in LC retention time: 3.44 min for the first, 4.45 min for the second.

Nc1ncnc2c1ncn2C1OC(COP(=O)(O)OP(=O)(O)OC2OC(CO)C(O)C(O)C2O)C(O)C1O (stereo not drawn) [ADP-GLUCOSE] and Nc1ncnc2c1ncn2C1OC(COP(=O)([O-])OP(=O)([O-])OCC2OC(O)C(O)C2O)C(O)C1O (stereo not drawn) [ADENOSINE DIPHOSPHATE RIBOSE] are within 1.5-fold of each other in LC retention time: 1.16 min for the first, 0.954 min for the second.

O=C(O)CCCCCCC(=O)NCC(=O)O [SUBERYLGLYCINE] and O=C(O)CCCCCC(=O)O [6-CARBOXYHEXANOATE] are within 1.5-fold of each other in LC retention time: 3.79 min for the first, 4.46 min for the second.

CC1OC(Oc2c(-c3ccc(O)c(O)c3)oc3cc(O)cc(O)c3c2=O)C(O)C(O)C1O (stereo not drawn) [QUERCITRIN] and O=c1c(OC2OC(CO)C(O)C(O)C2O)c(-c2ccc(O)c(O)c2)oc2cc(O)cc(O)c12 (stereo not drawn) [QUERCETIN 3-GALACTOSIDE] are within 1.5-fold of each other in LC retention time: 4.68 min for the first, 4.41 min for the second.

First: NC(CCOC(=O)CCC(=O)O)C(=O)O (stereo not drawn) [O-SUCCINYL-HOMOSERINE]
Second: CCNC(=O)CC[C@H](N)C(=O)O [L-THEANINE]
The LC retention time of the first is 1.9-fold higher: 1.68 min for the first, 0.897 min for the second.

Compared with O=c1[nH]c(=O)c2nccnc2[nH]1 [2,4-DIHYDROXYPTERIDINE], O=C(O)c1c[nH]c(=O)[nH]c1=O [URACIL 5-CARBOXYLATE] is 1.6-fold lower in LC retention time: 3.08 min for the first, 1.91 min for the second.

O=c1cc(-c2ccc(O)cc2)oc2cc(O)cc(O)c12 [APIGENIN] and O=C1c2c(O)cc(O)cc2OCC1c1ccc(O)cc1 (stereo not drawn) [DIHYDROGENISTEIN] are within 1.5-fold of each other in LC retention time: 6.02 min for the first, 5.97 min for the second.

CC(CCC(=O)O)C1CCC2C3CCC4CC(O)CCC4(C)C3CC(O)C12C (stereo not drawn) [DEOXYCHOLATE] and CC(CCC(=O)NCC(=O)O)C1CCC2C3CCC4CC(O)CCC4(C)C3CCC12C (stereo not drawn) [LITHOCHOLIC ACID GLYCINE CONJUGATE] are within 1.5-fold of each other in LC retention time: 7.67 min for the first, 7.62 min for the second.

Going from O=CNCC(=O)O [N-FORMYLGLYCINE] to C=C(CC(=O)O)C(=O)O [ITACONATE], the LC retention time rises from 0.962 min to 3.67 min (3.8-fold).

O=c1cc(-c2ccc(O)c(O)c2)oc2c(C3OC(CO)C(O)C(O)C3O)c(O)cc(O)c12 (stereo not drawn) [ORIENTIN] and CC1OC(OCC2OC(Oc3c(-c4ccc(O)c(O)c4)oc4cc(O)cc(O)c4c3=O)C(O)C(O)C2O)C(O)C(O)C1O (stereo not drawn) [RUTIN] are within 1.5-fold of each other in LC retention time: 5.18 min for the first, 4.25 min for the second.

Compared with C=CCC(=NOS(=O)(=O)O)SC1OC(CO)C(O)C(O)C1O (stereo not drawn) [SINIGRIN], O=C(CCc1ccc(O)cc1)c1c(O)cc(O)cc1OC1OC(CO)C(O)C(O)C1O (stereo not drawn) [PHLORIDZIN] is 2.5-fold higher in LC retention time: 2.03 min for the first, 5.01 min for the second.

First: O=C(O)c1cc(O)cc(O)c1 [3,5-DIHYDROXYBENZOIC ACID]
Second: O=C(O)c1cccc(O)c1O [2,3-DIHYDROXYBENZOATE]
The LC retention time of the first is 2.1-fold lower: 2.21 min for the first, 4.71 min for the second.

COc1cc(CC2COC(=O)C2Cc2ccc(O)c(OC)c2)ccc1O (single isomer, unassigned; (-)) [(-)-MATAIRESINOL] and COc1cc(CC(COC2OC(CO)C(O)C(O)C2O)C(COC2OC(CO)C(O)C(O)C2O)Cc2ccc(O)c(OC)c2)ccc1O (stereo not drawn) [SECOISOLARICIRESINOL DIGLUCOSIDE] are within 1.5-fold of each other in LC retention time: 6.12 min for the first, 4.58 min for the second.

Going from CC=CC=CC(=O)O [SORBATE] to CC(=CC(=O)O)C(=O)O [2-METHYLMALEATE], the LC retention time falls from 5.71 min to 3.29 min (1.7-fold).

CC1(C)C=Cc2c(ccc3c2OCC(c2ccc(O)cc2O)C3)O1 [(R)-GLABRIDIN] and O=c1oc2cc(O)ccc2c2oc3cc(O)ccc3c12 [COUMESTEROL] are within 1.5-fold of each other in LC retention time: 7.48 min for the first, 6.04 min for the second.

First: O=C(O)C1CCC(O)CC1 (stereo not drawn) [4-HYDROXYCYCLOHEXYLCARBOXYLIC ACID]
Second: O=C(O)C1(O)CC(O)C(O)C(O)C1 (stereo not drawn) [QUINATE]
The LC retention time of the first is 4.4-fold higher: 4.05 min for the first, 0.92 min for the second.

OCC(O)c1ccc(O)c(O)c1 (stereo not drawn) [3,4-DIHYDROXYPHENYLGLYCOL] and O=C(O)C(O)c1ccc(O)cc1 (stereo not drawn) [P-HYDROXYMANDELIC ACID] are within 1.5-fold of each other in LC retention time: 1.86 min for the first, 2.48 min for the second.

CC(C(=O)O)c1ccc(O)cc1 (stereo not drawn) [4-HYDROXYPHENYL-2-PROPIONIC ACID] and O=C(O)C=Cc1cccc(O)c1 [M-COUMARIC ACID] are within 1.5-fold of each other in LC retention time: 5.12 min for the first, 4.77 min for the second.

Compared with CC(C)C(=O)OC(CC(=O)[O-])C[N+](C)(C)C [ISOBUTYRYL-L-CARNITINE], CCCCCCCCCCCCCC(=O)OC(CC(=O)[O-])C[N+](C)(C)C (stereo not drawn) [TETRADECANOYLCARNITINE] is 1.9-fold higher in LC retention time: 3.82 min for the first, 7.44 min for the second.

Compared with Nc1ccccc1O [2-AMINOPHENOL], O=C(O)CNC(=O)c1ccccc1O [SALICYLURIC ACID] is 2.8-fold higher in LC retention time: 1.62 min for the first, 4.56 min for the second.

First: Cc1ncc(CO)c(C(=O)O)c1O [4-PYRIDOXATE]
Second: CCCc1oc(CCC(=O)O)c(C(=O)O)c1C [3-CARBOXY-4-METHYL-5-PROPYL-2-FURANPROPIONIC ACID]
The LC retention time of the first is 1.9-fold lower: 3.4 min for the first, 6.56 min for the second.

First: Nc1nc2c(ncn2C2OC(CO)C(O)C2O)c(=O)[nH]1 (stereo not drawn) [GUANOSINE]
Second: Nc1nc2c(ncn2C2OC(COP(=O)(O)O)C(O)C2O)c(=O)[nH]1 (stereo not drawn) [GUANOSINE MONOPHOSPHATE]
The LC retention time of the first is 2.1-fold higher: 3.37 min for the first, 1.57 min for the second.

Compared with C[N+](C)(C)CCCC(=O)[O-] [DEOXYCARNITINE], COC(=O)CCCN [METHYL 4-AMINOBUTYRATE] is 1.6-fold higher in LC retention time: 0.901 min for the first, 1.4 min for the second.

CCOC(=O)Cc1c[nH]c2ccccc12 [ETHYL 3-INDOLEACETATE] and O=C(O)Cc1c[nH]c2ccccc12 [INDOLEACETIC ACID] are within 1.5-fold of each other in LC retention time: 7.2 min for the first, 5.72 min for the second.

First: O=C(O)CCCCc1ccccc1 [5-PHENYLVALERIC ACID]
Second: NC(=O)CCC(NC(=O)Cc1ccccc1)C(=O)O (stereo not drawn) [PHENYLACETYLGLUTAMINE]
The LC retention time of the first is 1.8-fold higher: 7.21 min for the first, 3.9 min for the second.

NC(CCSSCCC(N)C(=O)O)C(=O)O (stereo not drawn) [HOMOCYSTINE] and C[Se]CCC(N)C(=O)O (stereo not drawn) [SELENOMETHIONINE] are within 1.5-fold of each other in LC retention time: 0.958 min for the first, 1.09 min for the second.

Compared with CCNC(=O)C1CC(C)CCC1C(C)C (stereo not drawn) [N-ETHYL-5-METHYL-2-(1-METHYLETHYL)-CYCLOHEXANECARBOXAMIDE], CC(=O)NC(CC(C)C)C(=O)O (stereo not drawn) [N-ACETYLLEUCINE] is 1.5-fold lower in LC retention time: 7.41 min for the first, 4.88 min for the second.

O=[N+]([O-])c1ccc(O)cc1O [2,4-DIHYDROXY-NITROPHENOL] and O=c1ccc2ccc(O)cc2o1 [UMBELLIFERONE] are within 1.5-fold of each other in LC retention time: 6.02 min for the first, 4.61 min for the second.

CC1OC(OC2C(Oc3cc(O)c4c(c3)OC(c3ccc(O)cc3)CC4=O)OC(CO)C(O)C2O)C(O)C(O)C1O (stereo not drawn) [NARINGIN] and O=c1c(-c2ccc(O)cc2)coc2cc(OC3OC(CO)C(O)C(O)C3O)ccc12 (stereo not drawn) [DAIDZIN] are within 1.5-fold of each other in LC retention time: 4.7 min for the first, 4.08 min for the second.

CC1C(=O)OC2C(O)C34C5OC(=O)C3(OC3OC(=O)C(O)C34C(C(C)(C)C)C5O)C12O (stereo not drawn) [GINKGOLIDE C] and C=C1CC23CC1(O)CCC2C12C=CC(O)C(C)(C(=O)O1)C2C3C(=O)O (stereo not drawn) [GIBBERELLIN A3] are within 1.5-fold of each other in LC retention time: 4.74 min for the first, 5.05 min for the second.

CC(C)(C(=O)O)C(=O)O [DIMETHYLMALONIC ACID] and CCC(C(=O)O)C(=O)O [ETHYLMALONATE] are within 1.5-fold of each other in LC retention time: 3.97 min for the first, 3.85 min for the second.

Compared with Cn1cnc2c(ncn2C2OC(CO)C(O)C2O)c1=N (stereo not drawn) [1-METHYLADENOSINE], Nc1ncnc2c1ncn2C1OC(CO)C(O)C1O (stereo not drawn) [ADENOSINE] is 1.6-fold higher in LC retention time: 2.05 min for the first, 3.28 min for the second.

First: CCC(C)C(=O)C(=O)O (stereo not drawn) [3-METHYL-2-OXOVALERATE]
Second: O=C(O)CC(O)C(=O)O (stereo not drawn) [MALATE]
The LC retention time of the first is 4-fold higher: 4.42 min for the first, 1.11 min for the second.

CC(CCC(=O)NCCS(=O)(=O)O)C1CCC2C3CCC4CC(O)CCC4(C)C3CCC12C (stereo not drawn) [LITHOCHOLYLTAURINE] and CC12CCC(=O)C=C1CCC1C2C(=O)CC2(C)C1CCC2(O)C(=O)CO (stereo not drawn) [CORTISONE] are within 1.5-fold of each other in LC retention time: 7.55 min for the first, 6.12 min for the second.

CCCCCC(O)C(O)CC=CCCCCCCCC(=O)O (stereo not drawn) [12,13-DIHOME] and CCCCCCCCCCCCCCCCCC(=O)O [STEARATE] are within 1.5-fold of each other in LC retention time: 7.5 min for the first, 11 min for the second.

CC(C)=CCOc1c2occc2cc2ccc(=O)oc12 [IMPERATORIN] and COc1c(O)cc2oc3cc(O)c(CC=C(C)C)c(O)c3c(=O)c2c1CC=C(C)C [ALPHA-MANGOSTIN] are within 1.5-fold of each other in LC retention time: 7.46 min for the first, 8.32 min for the second.

OCC(Cc1cccc(O)c1)C(CO)Cc1cccc(O)c1 (stereo not drawn) [ENTERODIOL] and O=S(=O)(O)Oc1c[nH]c2ccccc12 [INDOXYL SULFATE] are within 1.5-fold of each other in LC retention time: 5.95 min for the first, 4.58 min for the second.

Going from COc1ccc2c3c([nH]c2c1)C(C)=NCC3 [HARMALINE] to COc1ccc(-c2oc3cc(OC)c(OC)c(O)c3c(=O)c2OC)cc1O [CASTICIN], the LC retention time rises from 4.51 min to 6.98 min (1.5-fold).

CC(O)CCCCCC(=O)O (stereo not drawn) [7-HYDROXYOCTANOIC ACID] and O=C(O)CCCCC1SCC2NC(=O)NC21 (stereo not drawn) [BIOTIN] are within 1.5-fold of each other in LC retention time: 4.96 min for the first, 4.59 min for the second.

First: O=C(O)CC(C(=O)O)C(O)C(=O)O (stereo not drawn) [ISOCITRATE]
Second: O=C(O)CC(CC(=O)O)C(=O)O [1,2,3-PROPANETRICARBOXYLIC ACID]
The LC retention time of the first is 2.1-fold lower: 1.16 min for the first, 2.39 min for the second.

CCCCCCCCCC(=O)OCC(COP(=O)([O-])OCC[N+](C)(C)C)OC(=O)CCCCCCCCC (stereo not drawn) [DIDECANOYL-GLYCEROPHOSPHOCHOLINE] and O=C(O)CCCCCCCCCCCNC(=O)NC1CCCCC1 [CUDA] are within 1.5-fold of each other in LC retention time: 8.51 min for the first, 7.47 min for the second.

Cn1cc(C(N)=O)ccc1=O [N1-METHYL-2-PYRIDONE-5-CARBOXAMIDE] and O=C(O)c1cccnc1 [NICOTINATE] are within 1.5-fold of each other in LC retention time: 1.12 min for the first, 1.42 min for the second.
